Like-named read-outs stand apart in the source and are kept apart here.
Key:
Assay type in all cases: in vivo
[1] = test system: umbrella sedge (Cyperus difformis); assay: Test B flooded paddy test
How it was run: (§1)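 2-leaf seedlings; pots flooded 3 cm over soil at treatment; cpd dosed into floodwater, depth kept constant. Greenhouse 13–15 d. Visual rating vs untreated controls, 0 = no effect, 100 = complete control.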

[2] = test system: barnyardgrass (Echinochloa crus-galli); assay: Test B flooded paddy test
How it was run: as §1

[3] = test system: ducksalad (Heteranthera limosa); assay: Test B flooded paddy test
How it was run: as §1

rice (Oryza sativa) = assay: Test B flooded paddy test
How it was run: as §1

[4] = test system: nightshade (eastern black nightshade, Solanum ptycanthum); assay: Test B pre-/postemergence plant response; conditions: Preemergence
How it was run: (§2)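 Greenhouse herbicide screen. Pre- and postemergence (1- to 4-leaf) spray of compound in solvent/surfactant mixture; loam–sand soil for pre, peat/vermiculite medium for post. Visual control rating 0–100 at 13 to 15 days after treatment.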

[5] = test system: Russian thistle (Salsola kali); assay: Test B pre-/postemergence plant response; conditions: Preemergence
How it was run: as §2

[6] = test system: galium (catchweed bedstraw, Galium aparine); assay: Test B pre-/postemergence plant response; conditions: Preemergence
How it was run: as §2

[7] = test system: sunflower (common oilseed sunflower, Helianthus annuus); assay: Test B pre-/postemergence plant response; conditions: Preemergence
How it was run: as §2

[8] = test system: bermudagrass (Cynodon dactylon); assay: Test B pre-/postemergence plant response; conditions: for pest or weed control at 31 g/ha: 31 g ai/ha; for pest or weed control at 125 g/ha: 125 g ai/ha
How it was run: as §2

[9] = test system: morningglory (Ipomoea coccinea); assay: Test B pre-/postemergence plant response; conditions: for pest or weed control at 125 g/ha: 125 g ai/ha
How it was run: as §2

[10] = test system: winter barley (Hordeum vulgare); assay: Test B postemergence plant response
How it was run: (§3)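 Visual ratings from 0 (no effect) to 100 (complete control), made against controls 13–15 days after treatment, kept in a greenhouse. Compounds were applied postemergence to potted plants at the 1- to 4-leaf stage (2–18 cm).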

[11] = test system: chickweed (Stellaria media); assay: Test B postemergence plant response
How it was run: as §3

[12] = test system: windgrass (Apera spica-venti); assay: Test B postemergence plant response
How it was run: as §3

[13] = test system: canarygrass (Phalaris minor); assay: Test B postemergence plant response
How it was run: as §3

[14] = Flood, 31 g ai/ha, scale 0 to 100 (0 no effect, 100 complete control)
[15] = 31 g ai/ha, scale 0 to 100 (0 no effect, 100 complete control)
[16] = 62 g ai/ha, scale 0 to 100, 0 no effect, 100 complete control
[17] = 125 g ai/ha, scale 0 to 100, 0 no effect, 100 complete control
[18] = 62 g ai/ha, postemergence, 0 is no effect, 100 is complete control, 13 to 15 days

SMILES: COCCCn1c(-c2ccccc2)ncc(C(=O)C2=C(O)CCCC2=O)c1=O [Compound 81, 5-[(2-hydroxy-6-oxo-cyclohexen-1-yl)carbonyl]-3-(3-methoxypropyl)-2-phenyl-4(3H)-pyrimidinone]
- pest or weed control at 250 g/ha ([1]; Cyperus difformis, 360 h, 250 g ai/ha, flooded paddy test, visual rating on 0 to 100 scale (0 no effect, 100 complete control) after 13 to 15 days, read-out: Plant response rating, Flood, Sedge, Umbrella): 40%
- pest or weed control at 62 g/ha ([1]; Cyperus difformis, 360 h, Flood (flooded paddy test), 62 g ai/ha, scale of 0 to 100 where 0 is no effect and 100 is complete control, 13 to 15 days, read-out: Plant response rating, Sedge, Umbrella): 0%
- pest or weed control at 125 g/ha ([1]; Cyperus difformis, 360 h, Flood (flooded paddy test), 125 g ai/ha, scale 0 to 100, 0 is no effect, 100 is complete control, 13 to 15 days, read-out: Plant response rating, Sedge, Umbrella): 30%
- Sedge, Umbrella plant response rating [1, 14]: 0
- pest or weed control at 250 g/ha ([2]; Echinochloa crus-galli, 360 h, 250 g ai/ha, flooded paddy test, visual rating on 0 to 100 scale (0 no effect, 100 complete control) after 13 to 15 days, read-out: Plant response rating, Flood, Barnyardgrass): 60%
- pest or weed control at 62 g/ha ([2]; Echinochloa crus-galli, 360 h, Flood (flooded paddy test), 62 g ai/ha, scale of 0 to 100 where 0 is no effect and 100 is complete control, 13 to 15 days, read-out: Plant response rating, Barnyardgrass): 0%
- pest or weed control at 125 g/ha ([2]; Echinochloa crus-galli, 360 h, Flood (flooded paddy test), 125 g ai/ha, scale 0 to 100, 0 is no effect, 100 is complete control, 13 to 15 days, read-out: Plant response rating, Barnyardgrass): 40%
- Barnyardgrass plant response rating [2, 14]: 0
- Ducksalad plant response rating [3, 14]: 0
- pest or weed control at 250 g/ha ([3]; Heteranthera limosa, 360 h, 250 g ai/ha, flooded paddy test, visual rating on 0 to 100 scale (0 no effect, 100 complete control) after 13 to 15 days, read-out: Plant response rating, Flood, Ducksalad): 40%
- pest or weed control at 62 g/ha ([3]; Heteranthera limosa, 360 h, Flood (flooded paddy test), 62 g ai/ha, scale of 0 to 100 where 0 is no effect and 100 is complete control, 13 to 15 days, read-out: Plant response rating, Ducksalad): 0%
- pest or weed control at 125 g/ha ([3]; Heteranthera limosa, 360 h, Flood (flooded paddy test), 125 g ai/ha, scale 0 to 100, 0 is no effect, 100 is complete control, 13 to 15 days, read-out: Plant response rating, Ducksalad): 15%
- Rice plant response rating (rice (Oryza sativa); [14]): 0
- plant injury at 250 g/ha (rice (Oryza sativa); Oryza sativa, 250 g ai/ha, flooded paddy test, visual rating on 0 to 100 scale (0 no effect, 100 complete control) after 13 to 15 days, read-out: Plant response rating, Flood, Rice): 15%
- plant injury at 62 g/ha (rice (Oryza sativa); Oryza sativa, Flood (flooded paddy test), 62 g ai/ha, scale of 0 to 100 where 0 is no effect and 100 is complete control, 13 to 15 days, read-out: Plant response rating, Rice): 0%
- plant injury at 125 g/ha (rice (Oryza sativa); Oryza sativa, Flood (flooded paddy test), 125 g ai/ha, scale 0 to 100, 0 is no effect, 100 is complete control, 13 to 15 days, read-out: Plant response rating, Rice): 15%
- Plant response rating, Nightshade [4, 15]: 98
- Plant response rating, Nightshade [4, 16]: 98
- Plant response rating, Nightshade [4, 17]: 98
- Nightshade plant response rating ([4]; 250 g ai/ha, 0 to 100 scale): 100
- Plant response rating, Russian Thistle [5, 15]: 100
- Plant response rating, Russian Thistle [5, 16]: 100
- Plant response rating, Russian Thistle [5, 17]: 100
- Russian Thistle plant response rating ([5]; 250 g ai/ha, 0 to 100 scale): 100
- Plant response rating, Galium [6, 15]: 85
- Plant response rating, Galium [6, 16]: 100
- Plant response rating, Galium [6, 17]: 100
- Galium plant response rating ([6]; 250 g ai/ha, 0 to 100 scale): 100
- Plant response rating, Sunflower [7, 15]: 60
- Plant response rating, Sunflower [7, 16]: 75
- Plant response rating, Sunflower [7, 17]: 85
- Sunflower plant response rating ([7]; 250 g ai/ha, 0 to 100 scale): 90
- Bermudagrass plant response rating (0 to 100 scale) [8, 18]: 85
- pest or weed control at 31 g/ha ([8]; Cynodon dactylon, post-emergence, postemergence, scale 0 to 100, 0 is no effect, 100 is complete control, read-out: Plant response rating, Bermudagrass): 85%
- pest or weed control at 125 g/ha ([8]; Cynodon dactylon, post-emergence, Postemergence, visual rating after 13 to 15 days, scale 0 (no effect) to 100 (complete control)): 95%
- pest or weed control at 250 g/ha ([8]; Cynodon dactylon, post-emergence, Postemergence, 250 g ai/ha, scale 0 to 100 (0 no effect, 100 complete control), read-out: Plant response rating, Bermudagrass): 95%
- pest or weed control at 31 g/ha ([8]; Cynodon dactylon, pre-emergence, Preemergence, scale 0 to 100 (0 no effect, 100 complete control), read-out: Plant response rating, Bermudagrass): 100%
- pest or weed control at 62 g/ha ([8]; Cynodon dactylon, pre-emergence, Preemergence, 62 g ai/ha, scale 0 to 100, 0 no effect, 100 complete control, read-out: Plant response rating, Bermudagrass): 100%
- pest or weed control at 125 g/ha ([8]; Cynodon dactylon, pre-emergence, Preemergence, scale 0 to 100, 0 no effect, 100 complete control, read-out: Plant response rating, Bermudagrass): 100%
- Bermudagrass plant response rating ([8]; Preemergence, 250 g ai/ha, 0 to 100 scale, 0 no effect, 100 complete control): 100
- Morningglory plant response rating (0 to 100 scale) [9, 18]: 90
- pest or weed control at 31 g/ha ([9]; Ipomoea, post-emergence, 31 g ai/ha, postemergence, scale 0 to 100, 0 is no effect, 100 is complete control, read-out: Plant response rating, Morningglory): 75%
- pest or weed control at 125 g/ha ([9]; Ipomoea, post-emergence, Postemergence, visual rating after 13 to 15 days, scale 0 (no effect) to 100 (complete control)): 100%
- pest or weed control at 250 g/ha ([9]; Ipomoea, post-emergence, Postemergence, 250 g ai/ha, scale 0 to 100 (0 no effect, 100 complete control), read-out: Plant response rating, Morningglory): 100%
- pest or weed control at 62 g/ha ([9]; Ipomoea, pre-emergence, Preemergence, 62 g ai/ha, scale 0 to 100, 0 no effect, 100 complete control, read-out: Plant response rating, Morningglory): 65%
- pest or weed control at 125 g/ha ([9]; Ipomoea, pre-emergence, Preemergence, scale 0 to 100, 0 no effect, 100 complete control, read-out: Plant response rating, Morningglory): 80%
- Morningglory plant response rating ([9]; Preemergence, 250 g ai/ha, 0 to 100 scale): 95
- Barley plant response rating (0 to 100 scale) [10, 18]: 0
- plant injury at 31 g/ha ([10]; Hordeum vulgare, post-emergence, 31 g ai/ha, postemergence, scale 0 to 100, 0 is no effect, 100 is complete control, read-out: Plant response rating, Barley): 0%
- plant injury at 125 g/ha ([10]; Hordeum vulgare, post-emergence, Postemergence, 125 g ai/ha, visual rating after 13 to 15 days, scale 0 (no effect) to 100 (complete control)): 0%
- plant injury at 250 g/ha ([10]; Hordeum vulgare, post-emergence, Postemergence, 250 g ai/ha, scale 0 to 100 (0 no effect, 100 complete control), read-out: Plant response rating, Barley): 5%
- Chickweed plant response rating (0 to 100 scale) [11, 18]: 98
- pest or weed control at 31 g/ha ([11]; Stellaria media, post-emergence, 360 h, 31 g ai/ha, postemergence, scale 0 to 100, 0 is no effect, 100 is complete control, read-out: Plant response rating, Chickweed): 95%
- pest or weed control at 125 g/ha ([11]; Stellaria media, post-emergence, 360 h, Postemergence, 125 g ai/ha, visual rating after 13 to 15 days, scale 0 (no effect) to 100 (complete control)): 98%
- pest or weed control at 250 g/ha ([11]; Stellaria media, post-emergence, 360 h, Postemergence, 250 g ai/ha, scale 0 to 100 (0 no effect, 100 complete control), read-out: Plant response rating, Chickweed): 100%
- Windgrass plant response rating (0 to 100 scale) [12, 18]: 50
- pest or weed control at 31 g/ha ([12]; Apera spica-venti, post-emergence, 360 h, 31 g ai/ha, postemergence, scale 0 to 100, 0 is no effect, 100 is complete control, read-out: Plant response rating, Windgrass): 10%
- pest or weed control at 125 g/ha ([12]; Apera spica-venti, post-emergence, 360 h, Postemergence, 125 g ai/ha, visual rating after 13 to 15 days, scale 0 (no effect) to 100 (complete control)): 60%
- pest or weed control at 250 g/ha ([12]; Apera spica-venti, post-emergence, 360 h, Postemergence, 250 g ai/ha, scale 0 to 100 (0 no effect, 100 complete control), read-out: Plant response rating, Windgrass): 70%
- Canarygrass plant response rating (0 to 100 scale) [13, 18]: 5
- pest or weed control at 31 g/ha ([13]; Phalaris minor, post-emergence, 360 h, 31 g ai/ha, postemergence, scale 0 to 100, 0 is no effect, 100 is complete control, read-out: Plant response rating, Canarygrass): 0%
- pest or weed control at 125 g/ha ([13]; Phalaris minor, post-emergence, 360 h, Postemergence, 125 g ai/ha, visual rating after 13 to 15 days, scale 0 (no effect) to 100 (complete control)): 10%
- pest or weed control at 250 g/ha ([13]; Phalaris minor, post-emergence, 360 h, Postemergence, 250 g ai/ha, scale 0 to 100 (0 no effect, 100 complete control), read-out: Plant response rating, Canarygrass): 20%
